Read-outs that look alike come from different tables or passages of the source.

Here are results for five compounds from patent US20230043863A1, “HETEROAROMATIC DERIVATIVES FOR USE AS REGULATOR, PREPARATION METHOD THEREFOR AND USE THEREOF” (JIANGSU HANSOH PHARMACEUTICAL GROUP CO., LTD., priority 2018, published 2023).

The target in data set [1] is JAK1 (Homo sapiens, UniProt P23458). The data set can be described thus: JAK kinase activity inhibition, TR-FRET (JAK1). The class given is biochemical. The conditions noted are these: TR-FRET kinase assay. An outline of the steps:
(§1)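 Enzymatic inhibition measured by time-resolved FRET using 0.1-20 nM kinase with peptide substrate and ATP, reacted 0.5-5 hours at room temperature. Percent inhibition was normalized to DMSO (no inhibitor) and kinase-free wells, and concentration-response data were fitted with a 4-parameter logistic model.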

In data set [2] the target is TYK2 (Homo sapiens, UniProt P29597). As to the kind of experiment: JAK kinase activity inhibition, TR-FRET (TYK2). Particulars: TR-FRET kinase assay. The class given is biochemical. In a few lines: as §1
Chain of TYK2 (P29597 whole entry): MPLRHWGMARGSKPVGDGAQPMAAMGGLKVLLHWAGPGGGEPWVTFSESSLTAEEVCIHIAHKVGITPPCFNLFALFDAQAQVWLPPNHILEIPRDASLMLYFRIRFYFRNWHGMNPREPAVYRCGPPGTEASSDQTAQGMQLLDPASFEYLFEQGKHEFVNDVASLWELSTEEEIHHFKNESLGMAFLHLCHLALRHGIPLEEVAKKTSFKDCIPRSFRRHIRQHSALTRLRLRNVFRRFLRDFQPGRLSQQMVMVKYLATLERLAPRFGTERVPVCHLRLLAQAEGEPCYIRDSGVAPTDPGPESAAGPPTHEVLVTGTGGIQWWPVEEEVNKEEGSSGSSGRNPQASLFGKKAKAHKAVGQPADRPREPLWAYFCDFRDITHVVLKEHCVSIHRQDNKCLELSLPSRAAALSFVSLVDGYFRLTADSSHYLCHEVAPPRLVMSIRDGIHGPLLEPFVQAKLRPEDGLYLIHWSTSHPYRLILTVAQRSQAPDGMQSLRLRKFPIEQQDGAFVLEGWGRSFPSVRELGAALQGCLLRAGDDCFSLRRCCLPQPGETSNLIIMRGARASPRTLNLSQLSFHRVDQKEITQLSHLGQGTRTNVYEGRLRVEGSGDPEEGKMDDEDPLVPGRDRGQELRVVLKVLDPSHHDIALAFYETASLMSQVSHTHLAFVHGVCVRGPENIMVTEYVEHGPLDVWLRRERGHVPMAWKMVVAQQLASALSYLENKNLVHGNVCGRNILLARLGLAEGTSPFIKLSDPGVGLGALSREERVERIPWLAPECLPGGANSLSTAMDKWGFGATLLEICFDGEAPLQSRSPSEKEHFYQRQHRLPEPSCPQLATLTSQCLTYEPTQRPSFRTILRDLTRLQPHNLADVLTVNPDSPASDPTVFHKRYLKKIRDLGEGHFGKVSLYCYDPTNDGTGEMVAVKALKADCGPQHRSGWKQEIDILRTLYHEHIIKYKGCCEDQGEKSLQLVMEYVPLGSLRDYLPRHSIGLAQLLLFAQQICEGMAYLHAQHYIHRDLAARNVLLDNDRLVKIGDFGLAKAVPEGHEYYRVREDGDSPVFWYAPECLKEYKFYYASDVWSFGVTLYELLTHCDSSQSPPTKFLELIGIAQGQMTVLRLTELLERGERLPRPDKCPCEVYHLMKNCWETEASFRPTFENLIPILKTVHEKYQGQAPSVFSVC
Data set [3] relates to JAK-STAT signal pathway of U266 cells. As to the kind of experiment: Inhibition of cellular JAK-STAT signal pathway (STAT3 phosphorylation) in U266 cells. It is filed as cell-based, human. The conditions noted are these: Homo sapiens, U-266, INF-a 1000 U/mL stimulation. How it is done: The objective of the test is to test the inhibitory activity of the compound on the cellular JAK-STAT signaling pathway.
U266 cell line was used in this experiment, by activating the JAK-STAT signaling pathway through INF-a stimulation, the inhibitory activity of the compound on its downstream STAT3 phosphorylation was detected, and the half inhibitory concentration IC50 of the compound on the JAK-STAT signaling pathway activity was obtained.
3-12 μL of U266 cell line was spread into the 384-well detection plate, and the number of cells in each well was 100-300 K, followed by addition of 2 μL of the compound solution serially diluted. The plate was incubated for 2 hours with shaking at 350 rpm at room temperature. After 2 hours, 2 μL of INF-a with a final concentration of 1000 U/mL was added. The plate was shaken at room temperature for 15 minutes. 2-5 μL (5×) LANCE Ultra Lysis Buffer 2 solution was added and the plate was shaken at room temperature for 2 hours. After 2 hours, 5 μL of LANCE Ultra Eu-labeled Anti-STAT3 Antibody (PerkinElmer) with a final concentration of 0.5 nM and LANCE Ultra ULight-labeled Anti-STAT3 Antibody (PerkinElmer) with a final concentration of 5 nM were added, and the plate was incubated overnight at room temperature. The fluorescence signal value at 665 nm of each well was measured with the microplate reader, and the inhibition rate was calculated from the fluorescence signal value. According to the inhibition rate of different concentrations, the IC50 of the compound was obtained by curve fitting.
The percentage inhibition data of the wells treated with the compound was calculated with the positive control wells (DMSO control wells) and negative control wells (no kinase added) on the plate {% inhibition rate=100-[(test compound value-negative control value)]/(Positive control value-negative control value)×100}. IC50 value was calculated by using GraphPad prism to fit the data of different concentrations and corresponding percentage inhibition rates to a 4-parameter non-linear logic formula.

The nature of data set [4]: Balb/C mouse pharmacokinetics (plasma, colon, ileum). Particulars: male, po, Balb/C mice, p.o. 5 mg/kg; for Cmax: read-out: Blood concentration Cmax; for AUC(0-t): read-out: Curve area AUC0-t; for MRT: read-out: Mean detention time MRT; for Tmax: read-out: Time to peak tmax; for AUC(0-inf): read-out: Curve area AUC0-∞; for half-life: read-out: Half life period t1/2 (converted). The class given is in vivo. From the text: Balb/C mouse was used as the test animal, the pharmacokinetic behavior in mice (plasma and colon, ileum tissue) was studied after oral administering the embodiment 1, embodiment 60, embodiment 169, embodiment 170, embodiment 171, embodiment 179, embodiment 191, embodiment 213, embodiment 214, embodiment 237, embodiment 238, embodiment 244, embodiment 246, embodiment 247, embodiment 257, embodiment 260, embodiment 262, embodiment 263, embodiment 267, embodiment 277, embodiment 278, embodiment 279, embodiment 288, embodiment 295, embodiment 299 and embodiment 301 at a dose of 5 mg/kg. After analyzing the drug concentration in the colon and ileum, the ratio of the drug concentration in the colon to that in ileum, and the ratio of the drug concentration in the colon to that in the plasma, the compounds with excellent PK were selected for further research.
12 Balb/C mice in each group, male, Shanghai Jiesjie Experimental Animal Co., Ltd., animal production license number (SCXK (Shanghai) 2013-0006 N0.311620400001794).
12 Balb/C mice in each group, male; p.o. after one night fast; the dose was 5 mg/kg; the administration volume was 10 mL/kg.
At 0, 0.5, 1, 2, 3, 5 and 7 hours before and after the administration, the mice were executed by CO2 and 0.2 mL of blood was collected from the heart, placed in an EDTA-K2 test tube, and centrifuged at 6000 rpm at 4° C. for 6 minutes to separate the plasma, which was then stored at −80° C. The ileum was taken close to the cecum end with a length of about 4-5 cm, and the colon was also taken close to the cecum end with a length of about 2-3 cm, weighed and placed in a 2 mL centrifuge tube, then stored at −80° C.
1) 40 uL of plasma sample was precipitated by adding 160 uL of acetonitrile, mixed and centrifuged at 3500×g for 5-20 minutes.
2) 30 μL of plasma and intestinal homogenate sample were precipitated by adding 90 of acetonitrile containing internal standard (100 ng/mL), mixed and centrifuged at 13000 rpm for 8 minutes.
3) 70 μL of the supernatant solution after treatment was collected and 70 μL of water was added thereto, vortexed and mixed for 10 minutes, and then 20 μL was collected to analyze the concentration of the test compound by LC/MS/MS. LC/MS/MS analysis instrument: AB Sciex API 4000 Qtrap.
Liquid phase conditions: Shimadzu LC-20AD Pump
Chromatographic column: Agilent ZORBAX XDB-C18 (50×2.1 mm, 3.5 μm) mobile phase: 0.1% formic acid aqueous solution as A solution, acetonitrile as B solution
Elution time: 0-4.0 minutes, the eluent is as follows:
The main pharmacokinetic parameters were calculated with WinNonlin 6.1, and the results of mouse pharmacokinetic experiments are shown in Table 3:
NA refers to none detected or not being tested (the detection limit of blood concentration was 1 ng/mL, when the Cmax in the blood test is NA, then NA in the blood test index refers to none detected; when the Cmax in the blood test is higher than the quantitative limit 1 ng/mL, then NA in the blood test index refers to not being tested; NA in the tissues (colon and ileum) refers to not being tested).

Chain of JAK1 (P23458 whole entry): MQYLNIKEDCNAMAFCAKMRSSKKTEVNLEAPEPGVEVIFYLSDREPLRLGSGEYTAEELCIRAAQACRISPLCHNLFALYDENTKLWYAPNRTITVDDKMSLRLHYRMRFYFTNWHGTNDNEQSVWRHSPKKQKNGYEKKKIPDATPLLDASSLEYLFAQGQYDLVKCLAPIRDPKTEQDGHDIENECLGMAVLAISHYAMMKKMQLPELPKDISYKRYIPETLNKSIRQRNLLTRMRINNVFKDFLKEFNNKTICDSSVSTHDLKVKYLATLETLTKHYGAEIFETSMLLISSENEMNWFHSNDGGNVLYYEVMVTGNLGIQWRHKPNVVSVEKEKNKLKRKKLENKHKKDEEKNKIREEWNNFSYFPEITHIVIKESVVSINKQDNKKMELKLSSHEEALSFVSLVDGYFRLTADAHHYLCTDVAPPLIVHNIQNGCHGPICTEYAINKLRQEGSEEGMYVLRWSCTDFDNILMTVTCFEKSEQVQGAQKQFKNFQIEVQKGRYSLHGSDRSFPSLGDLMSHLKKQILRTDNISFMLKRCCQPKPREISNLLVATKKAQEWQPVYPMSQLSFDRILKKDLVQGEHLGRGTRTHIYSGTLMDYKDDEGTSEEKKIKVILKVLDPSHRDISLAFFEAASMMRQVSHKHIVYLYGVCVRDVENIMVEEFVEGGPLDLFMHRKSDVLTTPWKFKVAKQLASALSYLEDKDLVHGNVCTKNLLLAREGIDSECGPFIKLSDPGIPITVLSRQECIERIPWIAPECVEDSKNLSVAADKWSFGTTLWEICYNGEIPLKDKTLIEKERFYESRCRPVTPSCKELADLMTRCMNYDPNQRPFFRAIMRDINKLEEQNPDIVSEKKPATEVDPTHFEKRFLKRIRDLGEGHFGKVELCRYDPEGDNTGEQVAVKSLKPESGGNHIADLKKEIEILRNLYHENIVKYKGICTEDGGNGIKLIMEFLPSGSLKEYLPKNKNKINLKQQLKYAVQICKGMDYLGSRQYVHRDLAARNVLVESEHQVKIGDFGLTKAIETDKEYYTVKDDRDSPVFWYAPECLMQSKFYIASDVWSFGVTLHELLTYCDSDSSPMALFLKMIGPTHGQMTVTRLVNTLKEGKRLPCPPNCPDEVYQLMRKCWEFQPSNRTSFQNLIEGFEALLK

With `Cc1cc(Nc2nc(N[C@@H]3C[C@H]4CC[C@@H](C3)N4CCC#N)nc3cc(-c4cccnc4)ccc23)n[nH]1` [Embodiment 179, 3-((3-exo)-3-((4-((5-methyl-1H-pyrazol-3-yl)amino)-7-(pyridin-3-yl)quinazolin-2-yl)amino)-8-azabicyclo[3.2.1]oct-8-yl)propionitrile], the IC50 in data set [1] was found to be 0.44 nM. The IC50 in data set [2] was determined as 0.47 nM. Besides, the IC50 in data set [3] was determined as 9.84 nM. Besides, in data set [4] (plasma, blood), the Cmax worked out at 3.8 ng/mL, the AUC(0-t) is 6.76 ng·h/mL, the MRT came out at 1.66 h and the Tmax turned out to be 0.5 h. In data set [4] (colon), the Cmax was 485 ng/mL, the AUC(0-t) came to 2040 ng·h/mL, the AUC(0-inf) was 2180 ng·h/mL and the half-life was 1.49 h. Also, in data set [4] (colon), the mean residence time MRT amounted to 2.83 h and the Tmax was 1 h. In data set [4] (ileum), the Cmax stood at 2330 ng/mL, the AUC(0-t) was 10300 ng·h/mL, the MRT was 2.88 h and the Tmax is 3 h.
In the case of `Cc1cc(Nc2nc(N[C@@H]3C[C@H]4CC[C@@H](C3)N4CCC#N)nc3cc(N4CCOCC4)ccc23)n[nH]1` [Embodiment 191, 3-((3-exo)-3-((4-((5-methyl-1H-pyrazol-3-yl)amino)-7-morpholinoquinazolin-2-yl)amino)-8-azabicyclo[3.2.1]oct-8-yl)propionitrile], the IC50 in data set [1] worked out at 0.41 nM. Also, in data set [2], the IC50 turned out to be 0.94 nM. In data set [3], this compound registered an IC50 of 2.8 nM. In data set [4] (plasma, blood), the Cmax is 0.81 ng/mL and the time to peak (Tmax) stood at 1 h. For the same compound, in data set [4] (colon), the Cmax amounted to 3350 ng/mL, the AUC(0-t) was determined as 10600 ng·h/mL, the MRT came out at 4.59 h and the Tmax amounted to 5 h. Also, in data set [4] (ileum), the Cmax turned out to be 32600 ng/mL, the AUC(0-t) was 51500 ng·h/mL, the AUC(0-inf) stood at 51700 ng·h/mL and the half-life was 1.39 h. Also, in data set [4] (ileum), the mean residence time MRT worked out at 1.13 h and the time of peak concentration (Tmax) is 1 h.
As to `Cc1cc(Nc2nc(N[C@@H]3C[C@H]4CC[C@@H](C3)N4C(=O)CN3CCOCC3)nc3sccc23)n[nH]1` [Embodiment 244, 1-((3-exo)-3-((4-((5-methyl-1H-pyrazol-3-yl)amino)thieno[2,3-d]pyrimidin-2-yl)amino)-8-azabicyclo[3.2.1]oct-8-yl)-2-morpholinoethane-1-one], the half-inhibitory concentration (IC50) in data set [1] came to 1.15 nM. Moreover, the IC50 in data set [2] is 2.45 nM. In data set [3], this compound yielded a concentration for half-maximal inhibition (IC50) of 3.79 nM. For the same compound, in data set [4] (plasma, blood), the Cmax amounted to 12 ng/mL, the AUC(0-t) was 18 ng·h/mL, the MRT worked out at 2.12 h and the Tmax was 3 h. In addition, in data set [4] (colon), the Cmax came to 1190 ng/mL, the AUC(0-t) came out at 4900 ng·h/mL, the MRT worked out at 4.38 h and the Tmax was 7 h. Moreover, in data set [4] (ileum), the Cmax turned out to be 9010 ng/mL, the AUC(0-t) came to 22600 ng·h/mL, the AUC(0-inf) is 22600 ng·h/mL and the half-life is 0.66 h. In data set [4] (ileum), the MRT amounted to 1.83 h and the Tmax is 1 h.
As to `Cc1cc(Nc2nc(N[C@@H]3C[C@H]4CCC[C@@H](C3)N4C(=O)c3ccncc3)nc3sccc23)n[nH]1` [Embodiment 262, ((3-exo)-3-((4-((5-methyl-1H-pyrazol-3-yl)amino)thieno[2,3-d]pyrimidin-2-yl)amino)-9-azabicyclo[3.3.1]non-9-yl)(pyridin-4-yl)methanone], the IC50 in data set [1] amounted to 0.07 nM. Besides, in data set [2], the IC50 came out at 1.35 nM. Also, in data set [3], the IC50 is 9.47 nM. Moreover, in data set [4] (plasma, blood), the Cmax turned out to be 8.01 ng/mL, the AUC(0-t) was 13.4 ng·h/mL, the MRT is 1.77 h and the time of peak concentration (Tmax) amounted to 2 h. In data set [4] (colon), the Cmax came to 1240 ng/mL, the AUC(0-t) was found to be 3940 ng·h/mL, the AUC(0-inf) came out at 4520 ng·h/mL and the half-life was 1.69 h. In addition, in data set [4] (colon), the MRT was 3.72 h and the time to peak (Tmax) was 3 h. For the same compound, in data set [4] (ileum), the Cmax stood at 22300 ng/mL, the AUC(0-t) is 40200 ng·h/mL, the AUC(0-inf) was 40300 ng·h/mL and the half-life is 0.49 h. In data set [4] (ileum), the MRT was 1.34 h and the Tmax was 1 h.
On to `Cc1cc(Nc2nc(N[C@@H]3C[C@H]4CCC[C@@H](C3)N4C(=O)c3nccn3C)nc3sccc23)n[nH]1` [Embodiment 263, (1-methyl-1H-imidazol-2-yl) ((3-exo)-3-((4-((5-methyl-1H-pyrazol-3-yl)amino)thieno[2,3-d]pyrimidin-2-yl)amino)-9-azabicyclo[3.3.1]non-9-yl)methanone], for which, in data set [1], the IC50 came to 0.11 nM. The IC50 in data set [2] was determined as 0.22 nM. Further, in data set [3], the IC50 is 4.07 nM. In addition, in data set [4] (plasma, blood), the Cmax turned out to be 12.7 ng/mL, the AUC(0-t) is 57.6 ng·h/mL, the MRT is 3.51 h and the Tmax turned out to be 3 h. Further, in data set [4] (colon), the Cmax was determined as 5540 ng/mL, the AUC(0-t) was 15500 ng·h/mL, the MRT came to 3.58 h and the time of peak concentration (Tmax) is 3 h. In addition, in data set [4] (ileum), the Cmax amounted to 5490 ng/mL, the AUC(0-t) was determined as 9910 ng·h/mL, the AUC(0-inf) is 9940 ng·h/mL and the half-life is 0.82 h. For the same compound, in data set [4] (ileum), the MRT was 1.36 h and the time of peak concentration (Tmax) is 1 h.
